Measured values taken from patent US11034970B2, “Production of protein from hairy roots of a Brassicaceae plant utilizing rhizobium comprising rol genes” (UNIVERSITE DE PICARDIE JULES VERNE, priority 2015, dated 2021).
Several values for one entry are separate records, joined by “and”; a condition that tells them apart may be missing. Equal values may be shown once.

What was measured:
Assay type in all cases: cell-based, Brassica rapa
[1] = tested on: hairy roots of the clone 2M1; experiment: Test 1: quantification by fluorometry of GFP secreted in the culture medium (Petri dishes)
Method: (§1) In order to modify the morphology of the hairy roots and prevent the development of the root hairs, roots of the clone 2M1 producing GFP were cultured in B53 liquid medium for two weeks. This culture medium was then removed and replaced with fresh B53 medium containing 2,4-dichlorophenoxyacetic acid (2,4-D), an auxin-type hormone, at 0.5 mg/l.
(§2) For the quantification of 6× His-EGFP, culture medium was diluted to 20× or 40× in a 50 mM tris buffer at pH 7.5. The fluorescence of the solution was measured using the BioRad VersaFluor™ fluorometer (excitation filter 485-495 nm; emission filter 505-515 nm). The calibration of the fluorometer was carried out using the commercially available recombinant 6× His-EGFP (BioVision) at a concentration of 10 mg/l.
After culture of hairy roots of the clone 2M1 in B53 liquid medium for two weeks, this medium was replaced with fresh B53 medium containing 2,4-D auxin at 0.5 mg/l, in order to induce the development of lateral root emergences. The hairy roots of the clone 2M1 were thus cultured in Petri dishes containing 5 ml of B53 medium with 2,4-D added, at 23° C. and under stirring at 56 rpm.
The GFP secreted in the culture medium by the hairy roots having lateral root emergences, was quantified (10 repetitions) one and two weeks after the addition of 2,4-D auxin at 0.5 mg/l (Table 2).
Hairy roots of the clone 2M1 were cultured (9 repetitions) under the same conditions changing the B53 medium with fresh B53 medium but without the addition of auxin after culture for the first two weeks, in order to constitute control batches of hairy roots.

[2] = tested on: hairy roots of the clone 2M1; experiment: Test 2: GFP secreted in the culture medium, Erlenmeyer flasks, two renewals of medium; conditions: 2,4-D 1 mg/l, first change of medium
Method: as §2
The clone 2M1 was inoculated at t0 into 5 Erlenmeyer flasks at a rate of 2 g of fresh roots in 100 ml of B53 medium. After culture at 26° C. with a stirrer at 110 rpm for 15 days, the roots have reached a mass of 24.4 g+/−3.90.
A first change of medium was then carried out in each of the flasks as follows; • in two flasks, the B53 medium was replaced with fresh B53 medium in order to carry out two repetitions for the control hairy roots; • in three flasks, the B53 medium was replaced with B53 medium with 2,4-D added at 1 mg/l in order to carry out three repetitions for inducing the development of lateral root emergences;
The GFP secreted in the culture medium was quantified 7 to 14 days after this first change of medium.
A second change of medium was then carried out in these same flasks, in an identical manner:
in the two flasks of control hairy roots. the B53 medium was replaced with fresh B53 medium; […]

[3] = tested on: hairy roots of the clone 2M1; experiment: Test 3: GFP concentration in the culture medium after culture for 21 days (Petri dishes); conditions: 2,4-D 1 mg/l
Method: as §2
Roots of the clone 2M1 were inoculated in 14 Petri dishes, each containing 5 ml of liquid B53 culture medium. They were cultured at 26° C. under stirring at 110 rpm for 17 days.
The medium was then changed in the Petri dishes as follows: • in seven Petri dishes, the medium was removed and replaced with fresh B53 culture medium with 2,4-D added at 1 mg/l (LRE 1 to 7) in order to induce the development of lateral root emergences in these dishes; • and in the other seven Petri dishes, the medium was removed and replaced with fresh B53 culture medium (Controls 1 to 7).
The roots were maintained at 26° C. under stirring at 110 rpm for 21 days.

[4] = tested on: hairy roots of the clone LG5; experiment: Human gastric lipase activity in the liquid culture medium (4-methylumbelliferyl oleate substrate); conditions: 2,4-D 1 mg/l
Method: For this study, a subculture was carried out in six empty Erlenmeyer flasks, to which 1 g of biomass of the same mass of roots of the clone LG5 and 100 ml of liquid Gamborg B53 medium are added. The roots are cultured at 26° C. and under stirring at 110 rpm for two weeks.
In order to induce the development of lateral root emergences (LRE) in three Erlenmeyer flasks, this liquid medium is replaced with fresh B53 culture medium containing 2,4-dichlorophenoxyacetic acid (2,4-D) at 1 mg/l.
In the other three Erlenmeyer flasks having conventional hairy roots (HR), it is replaced with fresh B53 liquid culture medium, without 2,4-D.
After culture for two weeks at 26° C. with stirring at 110 rpm, a second change of medium was carried out in the flasks in an identical manner, in order to replace the culture medium with a fresh culture medium with +/−2,4-D at 1 mg/l.
The activity of the human gastric lipase is measured directly from the liquid culture media in the 6 flasks (14 days and 28 days after induction). The enzymatic activity is measured at 37° C. using 4-methylumbelliferyl oleate (0.1 mM) as substrate. The fluorescence of the 4-methylumbelliferone (MU), product of the enzyme reaction by the gastric lipase, is measured with a fluorometer (Excitation: 330 nm; Emission: 450 nm). This fluorescence is correlated to the human gastric lipase activity (FIG. 11).

[5] = tested on: hairy roots of the clone 2M1; experiment: Induction of lateral root emergences on hairy roots, morphology; conditions: 2,4-D 0.5 mg/l in B53 medium, during the following 7 days
Method: as §1
In order to characterize these conical structures or “lateral root emergences” developing on the roots after hormonal induction, longitudinal sections (FIG. 3) and cross sections (FIG. 4) were produced in the control hairy roots after culture for 2 weeks in B53 medium and in hairy roots having lateral root emergences after culture for 2 weeks in B53 medium with 2,4-D auxin added.
The tissues were fixed in 4% p-formaldehyde overnight at 4° C., dehydrated in baths of ethanol of increasing concentrations, then enclosed in LR White resin. Sections with a thickness of 0.5 to 1 μm were produced using a Leica RM2265 microtome, stained with toluidine blue and observed using a Nikon Eclipse 90i microscope. The images were obtained using a Nikon Digital Sight DS-5Mc device, in visible light or in fluorescence to locate the GFP.

[6] = lateral root emergences (LRE), 37° C., 3 flasks

O=C(O)COc1ccc(Cl)cc1Cl [2,4-D, 2,4-dichlorophenoxyacetic acid]
GFP in the culture medium versus control hairy roots (Student's test) ([1]; 2,4-D 0.5 mg/l versus medium without 2,4-D): significant difference | GFP in the culture medium, 2 weeks after B53 + 2,4-D, average ([1]; average of 10 Petri dishes (n=10), 2,4-D 0.5 mg/l): 164 ± 10.3 mg/L and 164 mg/L | GFP in the culture medium, 1 week after B53 + 2,4-D, average ([1]; average of 10 Petri dishes, 2,4-D 0.5 mg/l): 52 mg/L | secretion of GFP versus control cultures after treatment for 14 days [2]: doubled | concentration of GFP in the medium after 21 days ([3]; 7 Petri dishes, roots with lateral root emergences): 597 mg/L | concentration of GFP in the medium, times greater than control hairy roots ([3]; after 21 days): 4.3 | activity of the human gastric lipase, times greater than conventional hairy roots (HR) ([4]; LRE versus HR): approximately 3 | activity of the human gastric lipase in the culture medium at 14 days [4, 6]: 16 ± 0.6 pmol/min | activity of the human gastric lipase in the culture medium at 28 days [4, 6]: 45 ± 0.3 pmol/min | morphology of the hairy roots after hormonal induction [5]: Numerous conical structures called “lateral root emergences” (LRE) then developed on the hairy roots
